Laboratory results taken from PubChem BioAssay AID1963971 (Molecular Pharmacology Branch, DTP, NCI, 2024).

Test system: 953936-095-R-J2-PDC spheroids with HUVEC/MSC, viability
Test: Anticancer human tumor 953936-095-R-J2-PDC patient-derived cervical squamous cell carcinoma cell line growth inhibition [PI3K]
Settings: for IC50: curve of first compound; for viability, T/C: stronger effect = lower value
Procedure, shortened: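 Combination activity was assessed by viability in multicellular tumor spheroids carrying HUVEC and MSC components. Agents were tested with PI3K inhibitors from a Cmax-based top dose (or 10 microM) downward in half-log increments.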

[1] = second compound 0.0316 µM, first compound 0.0316 µM
[2] = second compound 0.0316 µM, first compound 0.1 µM
[3] = second compound 0.0316 µM, first compound 0.316 µM
[4] = second compound 0.0316 µM, first compound 1 µM
[5] = second compound 0.1 µM, first compound 0.0316 µM
[6] = second compound 0.1 µM, first compound 0.1 µM
[7] = second compound 0.1 µM, first compound 0.316 µM
[8] = second compound 0.1 µM, first compound 1 µM
[9] = second compound 0.316 µM, first compound 0.0316 µM
[10] = second compound 0.316 µM, first compound 0.1 µM
[11] = second compound 0.316 µM, first compound 0.316 µM
[12] = second compound 0.316 µM, first compound 1 µM
[13] = second compound 1 µM, first compound 0.0316 µM
[14] = second compound 1 µM, first compound 0.1 µM
[15] = second compound 1 µM, first compound 0.316 µM
[16] = second compound 1 µM, first compound 1 µM
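Note: spheroids exposed to compounds for seven days before read-out.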

Cn1cnc2c(F)c(Nc3ccc(Br)cc3Cl)c(C(=O)NOCCO)cc21 + CC(Nc1ccc2c(c1)OCCn1cc(N3C(=O)OCC3C(F)F)nc1-2)C(N)=O
IC50 (second compound 0.00316 µM): 494 nM | IC50 (second compound 0.01 µM): 279 nM | IC50 (second compound 0.0316 µM): 88.5 nM | IC50 (second compound 0.1 µM): < 9.49 nM | IC50 (second compound 0.316 µM): < 9.49 nM | IC50 (second compound 1 µM): < 9.49 nM | viability, T/C (second compound 0.00316 µM, first compound 0.00949 µM): 88.3% | viability, T/C (second compound 0.00316 µM, first compound 0.03 µM): 81.4% | viability, T/C (second compound 0.00316 µM, first compound 0.0949 µM): 66% | viability, T/C (second compound 0.00316 µM, first compound 0.3 µM): 55.7% | viability, T/C (second compound 0.00316 µM, first compound 0.949 µM): 43.7% | viability, T/C (second compound 0.00316 µM, first compound 3 µM): 30.2% | viability, T/C (second compound 0.01 µM, first compound 0.00949 µM): 75.6% | viability, T/C (second compound 0.01 µM, first compound 0.03 µM): 68.5% | viability, T/C (second compound 0.01 µM, first compound 0.0949 µM): 60% | viability, T/C (second compound 0.01 µM, first compound 0.3 µM): 51.5% | viability, T/C (second compound 0.01 µM, first compound 0.949 µM): 35% | viability, T/C (second compound 0.01 µM, first compound 3 µM): 26.3% | viability, T/C (second compound 0.0316 µM, first compound 0.00949 µM): 67.9% | viability, T/C (second compound 0.0316 µM, first compound 0.03 µM): 56.6% | viability, T/C (second compound 0.0316 µM, first compound 0.0949 µM): 49.7% | viability, T/C (second compound 0.0316 µM, first compound 0.3 µM): 42.5% | viability, T/C (second compound 0.0316 µM, first compound 0.949 µM): 29.7% | viability, T/C (second compound 0.0316 µM, first compound 3 µM): 20.6% | viability, T/C (second compound 0.1 µM, first compound 0.00949 µM): 46% | viability, T/C (second compound 0.1 µM, first compound 0.03 µM): 41.2% | viability, T/C (second compound 0.1 µM, first compound 0.0949 µM): 38.7% | viability, T/C (second compound 0.1 µM, first compound 0.3 µM): 23.9% | viability, T/C (second compound 0.1 µM, first compound 0.949 µM): 16.1% | viability, T/C (second compound 0.1 µM, first compound 3 µM): 7.95% | viability, T/C (second compound 0.316 µM, first compound 0.00949 µM): 28.1% | viability, T/C (second compound 0.316 µM, first compound 0.03 µM): 23% | viability, T/C (second compound 0.316 µM, first compound 0.0949 µM): 16.6% | viability, T/C (second compound 0.316 µM, first compound 0.3 µM): 11.6% | viability, T/C (second compound 0.316 µM, first compound 0.949 µM): 6.22% | viability, T/C (second compound 0.316 µM, first compound 3 µM): 3.26% | viability, T/C (second compound 1 µM, first compound 0.00949 µM): 18.6% | viability, T/C (second compound 1 µM, first compound 0.03 µM): 14.5% | viability, T/C (second compound 1 µM, first compound 0.0949 µM): 10.3% | viability, T/C (second compound 1 µM, first compound 0.3 µM): 8.09% | viability, T/C (second compound 1 µM, first compound 0.949 µM): 4.74% | viability, T/C (second compound 1 µM, first compound 3 µM): 1.5%

Cn1ncc(Cl)c1-c1cc(C(=O)NC(CN)Cc2cccc(F)c2)sc1Cl (stereo unspecified) + Cc1nc(NC(=O)N2CCCC2C(N)=O)sc1-c1ccnc(C(C)(C)C(F)(F)F)c1
IC50 (second compound 0.0316 µM): 378 nM | IC50 (second compound 0.1 µM): 392 nM | IC50 (second compound 0.316 µM): 165 nM | IC50 (second compound 1 µM): < 31.6 nM | IC50 (second compound 3.16 µM): < 31.6 nM | IC50 (second compound 10 µM): < 31.6 nM | viability, T/C [1]: 76.7% | viability, T/C [2]: 75.7% | viability, T/C [3]: 50.5% | viability, T/C [4]: 32.2% | viability, T/C (second compound 0.0316 µM, first compound 3.16 µM): 17.5% | viability, T/C (second compound 0.0316 µM, first compound 10 µM): 12.8% | viability, T/C [5]: 79.4% | viability, T/C [6]: 77.3% | viability, T/C [7]: 53.2% | viability, T/C [8]: 28.9% | viability, T/C (second compound 0.1 µM, first compound 3.16 µM): 16.6% | viability, T/C (second compound 0.1 µM, first compound 10 µM): 9.11% | viability, T/C [9]: 60.4% | viability, T/C [10]: 56.8% | viability, T/C [11]: 41.8% | viability, T/C [12]: 23.9% | viability, T/C (second compound 0.316 µM, first compound 3.16 µM): 13.9% | viability, T/C (second compound 0.316 µM, first compound 10 µM): 9.97% | viability, T/C [13]: 43.5% | viability, T/C [14]: 40% | viability, T/C [15]: 32.1% | viability, T/C [16]: 19.2% | viability, T/C (second compound 1 µM, first compound 3.16 µM): 11.3% | viability, T/C (second compound 1 µM, first compound 10 µM): 6.42% | viability, T/C (second compound 3.16 µM, first compound 0.0316 µM): 25.1% | viability, T/C (second compound 3.16 µM, first compound 0.1 µM): 24% | viability, T/C (second compound 3.16 µM, first compound 0.316 µM): 19.2% | viability, T/C (second compound 3.16 µM, first compound 1 µM): 13.6% | viability, T/C (second compound 3.16 µM, first compound 3.16 µM): 8.24% | viability, T/C (second compound 3.16 µM, first compound 10 µM): 4.61% | viability, T/C (second compound 10 µM, first compound 0.0316 µM): 11.2% | viability, T/C (second compound 10 µM, first compound 0.1 µM): 10.5% | viability, T/C (second compound 10 µM, first compound 0.316 µM): 11.5% | viability, T/C (second compound 10 µM, first compound 1 µM): 8.02% | viability, T/C (second compound 10 µM, first compound 3.16 µM): 4.99% | viability, T/C (second compound 10 µM, first compound 10 µM): 1.1%

CCN1CCN(Cc2ccc(Nc3ncc(F)c(-c4cc(F)c5nc(C)n(C(C)C)c5c4)n3)nc2)CC1 + CC(Nc1ccc2c(c1)OCCn1cc(N3C(=O)OCC3C(F)F)nc1-2)C(N)=O
IC50 (second compound 0.00316 µM): > 1000 nM | IC50 (second compound 0.01 µM): > 1000 nM | IC50 (second compound 0.0316 µM): > 1000 nM | IC50 (second compound 0.1 µM): 64.4 nM | IC50 (second compound 0.316 µM): < 3.16 nM | IC50 (second compound 1 µM): < 3.16 nM | viability, T/C (second compound 0.00316 µM, first compound 0.00316 µM): 102% | viability, T/C (second compound 0.00316 µM, first compound 0.01 µM): 98.5% | viability, T/C (second compound 0.00316 µM, first compound 0.0316 µM): 94.6% | viability, T/C (second compound 0.00316 µM, first compound 0.1 µM): 96.6% | viability, T/C (second compound 0.00316 µM, first compound 0.316 µM): 89.8% | viability, T/C (second compound 0.00316 µM, first compound 1 µM): 80.7% | viability, T/C (second compound 0.01 µM, first compound 0.00316 µM): 93% | viability, T/C (second compound 0.01 µM, first compound 0.01 µM): 104% | viability, T/C (second compound 0.01 µM, first compound 0.0316 µM): 94.2% | viability, T/C (second compound 0.01 µM, first compound 0.1 µM): 83.3% | viability, T/C (second compound 0.01 µM, first compound 0.316 µM): 80% | viability, T/C (second compound 0.01 µM, first compound 1 µM): 79.3% | viability, T/C (second compound 0.0316 µM, first compound 0.00316 µM): 73% | viability, T/C (second compound 0.0316 µM, first compound 0.01 µM): 79.7% | viability, T/C [1]: 72.5% | viability, T/C [2]: 75.8% | viability, T/C [3]: 63.8% | viability, T/C [4]: 72.2% | viability, T/C (second compound 0.1 µM, first compound 0.00316 µM): 58.4% | viability, T/C (second compound 0.1 µM, first compound 0.01 µM): 53.8% | viability, T/C [5]: 53.5% | viability, T/C [6]: 47.9% | viability, T/C [7]: 45.8% | viability, T/C [8]: 48.5% | viability, T/C (second compound 0.316 µM, first compound 0.00316 µM): 34.8% | viability, T/C (second compound 0.316 µM, first compound 0.01 µM): 36% | viability, T/C [9]: 31.1% | viability, T/C [10]: 32.3% | viability, T/C [11]: 27.6% | viability, T/C [12]: 29.4% | viability, T/C (second compound 1 µM, first compound 0.00316 µM): 22% | viability, T/C (second compound 1 µM, first compound 0.01 µM): 21.5% | viability, T/C [13]: 22.7% | viability, T/C [14]: 18.8% | viability, T/C [15]: 18.4% | viability, T/C [16]: 24.7%
